Drawing on patent US20090036450A1, “PYRAZOLE COMPOUNDS AND USE THEREOF” (JAPAN TOBACCO, INC., priority 2006, published 2009), this text covers IC50 for 25 compounds.

Usually IC50 stands for the concentration that inhibits the measured activity by half.

The assay concerns the target T1, human liver glycogen phosphorylase (Homo sapiens, UniProt P06737).
T1 construct: made in house; host or cells: Sf9 insect cells (suspension of disrupted cells, diluted in BES buffer, not purified)
T1 sequence (P06737 1-847): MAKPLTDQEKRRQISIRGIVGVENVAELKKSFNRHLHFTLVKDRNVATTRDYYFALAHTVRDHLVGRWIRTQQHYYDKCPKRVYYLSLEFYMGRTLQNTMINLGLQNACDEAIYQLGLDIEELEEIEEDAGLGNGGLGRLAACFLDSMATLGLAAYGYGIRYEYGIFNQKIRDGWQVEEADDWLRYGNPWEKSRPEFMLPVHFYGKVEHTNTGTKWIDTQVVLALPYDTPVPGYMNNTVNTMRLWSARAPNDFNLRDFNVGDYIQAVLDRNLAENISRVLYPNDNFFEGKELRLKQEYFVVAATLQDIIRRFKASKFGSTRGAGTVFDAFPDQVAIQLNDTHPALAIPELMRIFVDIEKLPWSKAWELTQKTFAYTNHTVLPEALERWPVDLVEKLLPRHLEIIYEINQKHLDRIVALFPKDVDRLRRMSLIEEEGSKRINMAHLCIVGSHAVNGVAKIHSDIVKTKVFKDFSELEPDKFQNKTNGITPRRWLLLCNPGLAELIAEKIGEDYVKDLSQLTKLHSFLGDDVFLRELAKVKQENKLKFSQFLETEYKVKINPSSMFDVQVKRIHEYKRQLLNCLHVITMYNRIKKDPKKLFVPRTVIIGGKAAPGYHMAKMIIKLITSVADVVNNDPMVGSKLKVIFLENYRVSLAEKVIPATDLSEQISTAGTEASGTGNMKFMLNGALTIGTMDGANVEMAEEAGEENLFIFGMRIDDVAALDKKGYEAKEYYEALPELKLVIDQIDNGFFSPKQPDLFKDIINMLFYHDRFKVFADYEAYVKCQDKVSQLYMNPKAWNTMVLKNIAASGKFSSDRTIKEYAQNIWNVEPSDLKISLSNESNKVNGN
The assay can be described thus: Liver glycogen phosphorylase activity, forward reaction system (NADPH detection at 340 nm). Format: biochemical. As to conditions: enzyme inhibitory activity against recombinant human liver glycogen phosphorylase (Sf9 cell lysate), room temperature, 75 minutes. In outline: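 Recombinant human liver glycogen phosphorylase from Sf9 lysate, run in forward direction with glycogen and phosphate substrate plus glucose, coupled via phosphoglucomutase/G6PDH to NADPH formation. BES buffer pH 6.8, room temperature, 75 min; A340 change minus blank gives activity. IC50 from percent inhibition vs DMSO control.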

Where a name gives a salt, the structure may show the parent alone. Bounds are passed on as bounds.

With `O=C(NCc1cnn(-c2ccc(F)cc2)c1C1CC1)c1cc(NC(=O)c2cc(F)c(F)cc2Cl)[nH]n1` [Example 1-67, 5-(2-chloro-4,5-difluoro-benzoylamino)-1H-pyrazole-3-carboxylic acid [5-cyclopropyl-1-(4-fluoro-phenyl)-1H-pyrazol-4-ylmethyl]-amide], the IC50 is less than 100 nM.

In the case of `Cc1ncc(CNC(=O)c2cc(NC(=O)c3cc(F)c(F)cc3Cl)[nH]n2)c(C2CC2)n1` [Example 1-68, 5-(2-chloro-4,5-difluoro-benzoylamino)-1H-pyrazole-3-carboxylic acid (4-cyclopropyl-2-methyl-pyrimidin-5-ylmethyl)-amide], the IC50 was less than 100 nM.

In the case of `COc1ccc(-c2nnsc2CNC(=O)c2cc(NC(=O)c3cc(F)c(F)cc3Cl)[nH]n2)cc1` [Example 1-69, 5-(2-chloro-4,5-difluoro-benzoylamino)-1H-pyrazole-3-carboxylic acid [4-(4-methoxy-phenyl)-[1,2,3]thiadiazol-5-ylmethyl]-amide], the IC50 is less than 100 nM.

On to `Cc1noc(-c2noc(C)c2CNC(=O)c2cc(NC(=O)c3cc(F)c(F)cc3Cl)[nH]n2)n1` [Example 1-70, 5-(2-chloro-4,5-difluoro-benzoylamino)-1H-pyrazole-3-carboxylic acid [5-methyl-3-(3-methyl-[1,2,4]oxadiazol-5-yl)-isoxazol-4-ylmethyl]-amide], for which the IC50 was less than 100 nM.

Take `Cc1noc(-c2nc(C)oc2CNC(=O)c2cc(NC(=O)c3cc(F)c(F)cc3Cl)[nH]n2)n1` [Example 1-71, 5-(2-chloro-4,5-difluoro-benzoylamino)-1H-pyrazole-3-carboxylic acid [2-methyl-4-(3-methyl-[1,2,4]oxadiazol-5-yl)-oxazol-5-ylmethyl]-amide]: the half-maximal inhibitory concentration (IC50) is less than 100 nM.

As to `O=C(NCc1nnc(-c2cccc(F)c2)o1)c1cc(NC(=O)c2cc(F)c(F)cc2Cl)[nH]n1` [Example 1-72, 5-(2-chloro-4,5-difluoro-benzoylamino)-1H-pyrazole-3-carboxylic acid [5-(3-fluoro-phenyl)-[1,3,4]oxadiazol-2-ylmethyl]-amide], the IC50 was less than 100 nM.

In the case of `O=C(NCc1nnc(Cc2ccccc2)o1)c1cc(NC(=O)c2cc(F)c(F)cc2Cl)[nH]n1` [Example 1-74, 5-(2-chloro-4,5-difluoro-benzoylamino)-1H-pyrazole-3-carboxylic acid (5-benzyl-[1,3,4]oxadiazol-2-ylmethyl)-amide], the IC50 is less than 100 nM.

As to `Cn1cccc1-c1nnc(CNC(=O)c2cc(NC(=O)c3cc(F)c(F)cc3Cl)[nH]n2)o1` [Example 1-75, 5-(2-chloro-4,5-difluoro-benzoylamino)-1H-pyrazole-3-carboxylic acid [5-(1-methyl-1H-pyrrol-2-yl)-[1,3,4]oxadiazol-2-ylmethyl]-amide], the IC50 is less than 100 nM.

Turning to `Cc1cc(-c2nnc(CNC(=O)c3cc(NC(=O)c4cc(F)c(F)cc4Cl)[nH]n3)o2)[nH]n1` [Example 1-76, 5-(2-chloro-4,5-difluoro-benzoylamino)-1H-pyrazole-3-carboxylic acid [5-(5-methyl-2H-pyrazol-3-yl)-[1,3,4]oxadiazol-2-ylmethyl]-amide], the half-maximal inhibitory concentration (IC50) was less than 100 nM.

On to `O=C(NCc1nnc(-c2cc3ccccc3s2)o1)c1cc(NC(=O)c2cc(F)c(F)cc2Cl)[nH]n1` [Example 1-77, 5-(2-chloro-4,5-difluoro-benzoylamino)-1H-pyrazole-3-carboxylic acid (5-benzo[b]thiophen-2-yl-[1,3,4]oxadiazol-2-ylmethyl)-amide], for which the IC50 was in the range of 100 to 300 nM.

In the case of `Cc1nnsc1-c1nnc(CNC(=O)c2cc(NC(=O)c3cc(F)c(F)cc3Cl)[nH]n2)o1` [Example 1-78, 5-(2-chloro-4,5-difluoro-benzoylamino)-1H-pyrazole-3-carboxylic acid [5-(4-methyl-[1,2,3]thiadiazol-5-yl)-[1,3,4]oxadiazol-2-ylmethyl]-amide], the IC50 was less than 100 nM.

As to `Cc1ncc(CNC(=O)c2cc(NC(=O)c3cc(F)c(F)cc3Cl)[nH]n2)c(-c2cccc(F)c2)n1` [Example 1-79, 5-(2-chloro-4,5-difluoro-benzoylamino)-1H-pyrazole-3-carboxylic acid [4-(3-fluoro-phenyl)-2-methyl-pyrimidin-5-ylmethyl]-amide], the IC50 is less than 100 nM.

With `Cc1nc(C2CC2)ncc1CNC(=O)c1cc(NC(=O)c2cc(F)c(F)cc2Cl)[nH]n1` [Example 1-80, 5-(2-chloro-4,5-difluoro-benzoylamino)-1H-pyrazole-3-carboxylic acid (2-cyclopropyl-4-methyl-pyrimidin-5-ylmethyl)-amide], the IC50 was less than 100 nM.

As to `O=C(NCc1cncnc1C1CC1)c1cc(NC(=O)c2cc(F)c(F)cc2Cl)[nH]n1` [Example 1-81, 5-(2-chloro-4,5-difluoro-benzoylamino)-1H-pyrazole-3-carboxylic acid (4-cyclopropyl-pyrimidin-5-ylmethyl)-amide], the IC50 is less than 100 nM.

Take `O=C(NCc1cnc(C2CC2)nc1C1CC1)c1cc(NC(=O)c2cc(F)c(F)cc2Cl)[nH]n1` [Example 1-82, 5-[2-chloro-4,5-difluoro-benzoylamino)-1H-pyrazole-3-carboxylic acid (2,4-dicyclopropyl-pyrimidin-5-ylmethyl)-amide hydrochloride]: the IC50 is less than 100 nM.

As to `Cc1ncc(CNC(=O)c2cc(NC(=O)c3cc(F)c(F)cc3Cl)[nH]n2)c(-c2oc(C)nc2C)n1` [Example 1-83, 5-(2-chloro-4,5-difluoro-benzoylamino)-1H-pyrazole-3-carboxylic acid [4-(2,4-dimethyl-oxazol-5-yl)-2-methyl-pyrimidin-5-ylmethyl]-amide], the 50% inhibitory concentration (IC50) was less than 100 nM.

Turning to `Cc1cc(-c2nnsc2CNC(=O)c2cc(NC(=O)c3cc(F)c(F)cc3Cl)[nH]n2)c(C)o1` [Example 1-84, 5-(2-chloro-4,5-difluoro-benzoylamino)-1H-pyrazole-3-carboxylic acid [4-(2,5-dimethyl-furan-3-yl)-[1,2,3]thiadiazol-5-ylmethyl]-amide], the IC50 was less than 100 nM.

Turning to `O=C(NCc1nnc(-c2cccc(Cl)c2)s1)c1cc(NC(=O)c2cc(F)c(F)cc2Cl)[nH]n1` [Example 1-85], the 50% inhibitory concentration (IC50) was less than 100 nM.

Turning to `CCc1nc(Cc2nc(C)c(CNC(=O)c3cc(NC(=O)c4cc(F)c(F)cc4Cl)[nH]n3)o2)n[nH]1` [Example 1-86, 5-(2-chloro-4,5-difluoro-benzoylamino)-1H-pyrazole-3-carboxylic acid [2-(5-ethyl-1H-[1,2,4]thiazol-3-ylmethyl)-4-methyl-oxazol-5-ylmethyl]-amide hydrochloride], the IC50 is less than 100 nM.

As for `O=C(NCc1n[nH]c(-c2ccc(Cl)cc2)n1)c1cc(NC(=O)c2cc(F)c(F)cc2Cl)[nH]n1` [Example 1-87, 5-(2-chloro-4,5-difluoro-benzoylamino)-1H-pyrazole-3-carboxylic acid [5-(4-chloro-phenyl)-1H-[1,2,4]triazol-3-ylmethyl]-amide], the IC50 was less than 100 nM.

For `COc1ccc(Cc2nc(CNC(=O)c3cc(NC(=O)c4cc(F)c(F)cc4Cl)[nH]n3)n[nH]2)cc1OC` [Example 1-88, 5-(2-chloro-4,5-difluoro-benzoylamino)-1H-pyrazole-3-carboxylic acid [5-(3,4-dimethoxy-benzyl)-1H-[1,2,4]triazol-3-ylmethyl]-amide], the concentration for half-maximal inhibition (IC50) is less than 100 nM.

Turning to `CCOC(=O)c1nc(C)oc1CNC(=O)c1cc(NC(=O)c2cc(F)c(F)cc2C)[nH]n1` [Example 2-1, 5-(4,5-difluoro-2-methyl-benzoylamino)-1H-pyrazole-3-carboxylic acid (4-ethoxycarbonyl-2-methyl-oxazol-5-ylmethyl)-amide], the IC50 is less than 100 nM.

For the compound `O=C(NCc1ccc(C(=O)O)o1)c1cc(NC(=O)c2cc(F)c(F)cc2Cl)[nH]n1` [Example 3-1, 5-(2-chloro-4,5-difluoro-benzoylamino)-1H-pyrazole-3-carboxylic acid (2-carboxy-furan-5-ylmethyl)-amide], the concentration for half-maximal inhibition (IC50) was less than 100 nM.

As to `Cc1nc(C(=O)O)sc1CNC(=O)c1cc(NC(=O)c2cc(F)c(F)cc2Cl)[nH]n1` [Example 3-2, sodium 5-({[5-(2-chloro-4,5-difluoro-benzoylamino)-1H-pyrazole-3-carbonyl]-amino}-methyl)-4-methyl-thiazole-2-carboxylate], the IC50 is less than 100 nM.

With `O=C(O)c1cc(CNC(=O)c2cc(NC(=O)c3cc(F)c(F)cc3Cl)[nH]n2)on1` [Example 3-3, 5-(2-chloro-4,5-difluoro-benzoylamino)-1H-pyrazole-3-carboxylic acid (3-carboxy-isoxazol-5-ylmethyl)-amide], the IC50 lay within 100 to 300 nM.
